Measured values published in patent publication US9018214B2, “Bicyclic heterocycle compounds and their uses in therapy” (Astex Therapeutics Limited, priority 2011, dated 2015).
Where a name gives a salt, the structure may show the parent alone. Read-outs that look alike come from different tables or passages of the source.

Assays:
[1] = target: BIR3 domain of human cIAP-1 (residues 267-363) (Homo sapiens (Human), UniProt Q13490); test: cIAP-1 in vitro competitive displacement binding assay (fluorescence polarization; Probe A AVPIK(5&6FAM)-amide or Probe B AbuRPFK(5&6FAM)-amide)
[2] = test system: EVSA-T (human breast carcinoma); test: Anti-proliferative activity, Alamar Blue assay, EVSA-T; assay type: cell-based; conditions: Homo sapiens
[3] = target: BIR3 domain of human XIAP (residues 252-350) (Homo sapiens (Human), UniProt P98170); test: XIAP in vitro competitive displacement binding assay (fluorescence polarization); conditions: for IC50: read-out: IC50 or PI Xiap: IC50
[4] = test system: MDA-MB-231 (human breast carcinoma); test: Anti-proliferative activity, Alamar Blue assay, MDA-MB-231; assay type: cell-based; conditions: read-out: EC50, inhibition of cell growth
[5] = read-out: IC50 or PI cIAP1: IC50
[6] = EVSA-T, 72 h, read-out: EC50, inhibition of cell growth
[7] = EVSA-T, 72 h, read-out: EVSA-T prolif (EC50)
[8] = Probe B AbuRPFK(5&6FAM)-amide, read-out: IC50 or PI cIAP1: IC50
[9] = EVSA-T cell line, 72 hours, Alamar Blue, read-out: EC50, inhibition of cell growth
[10] = EVSA-T, 72 hours, Alamar Blue, read-out: EVSA-T prolif (EC50)
[11] = MDA-MB-231 cell line, 72 hours, Alamar Blue
[12] = 3 h, read-out: IC50 or PI cIAP1: PI
[13] = 1 h, read-out: IC50 or PI Xiap: PI

How did the IC50 [1] turn out when `C[C@@H]1CN(CC(=O)N2CC(C)(C)c3cc(F)c(S(=O)(=O)c4ccccc4)cc32)CCN1` [Example 47, 1-(6-Benzenesulfonyl-5-fluoro-3,3-dimethyl-2,3-dihydro-indol-1-yl)-2-((R)-3-methyl-piperazin-1-yl)-ethanone dihydrochloride salt] was run?
The IC50 was < 1000 nM.

And the IC50 [1, 5]?
The IC50 was 390 nM.

What about the EC50 [2, 6] of the same compound?
The EC50 was < 10000 nM.

And the EC50 [2, 7]?
The EC50 was 1800 nM.

What about the IC50 [3] of the same compound?
Its IC50 is 270 nM.

And the EC50 ([4]; MDA-MB-231, 72 h)?
The EC50 was < 10000 nM.

With `CC[C@H]1CN[C@H](C)CN1CC(=O)N1CC(C)(C)c2cc(F)c(S(=O)(=O)c3ccccc3)cc21` [Example 48, 1-(6-Benzenesulfonyl-5-fluoro-3,3-dimethyl-2,3-dihydro-indol-1-yl)-2-((2S,5R)-2-ethyl-5-methyl-piperazin-1-yl)-ethanone dihydrochloride salt] as the compound, how does the IC50 [1] read?
Its IC50 is < 1000 nM.

And the IC50 [1, 5]?
Its IC50 is 64 nM.

And the EC50 [2, 6]?
The EC50 was < 10000 nM.

What about the EC50 [2, 7] of the same compound?
Its EC50 is 250 nM.

And the IC50 [3]?
Its IC50 is 97 nM.

What about the EC50 ([4]; MDA-MB-231, 72 h) of the same compound?
The EC50 was < 10000 nM.

Which results are given for `COC[C@H]1CN[C@H](C)CN1CC(=O)N1CC(C)(C)c2cc(F)c(S(=O)(=O)c3ccccc3)cc21` [Example 58, 1-(6-Benzene-sulfonyl-5-fluoro-3,3-dimethyl-2,3-dihydro-indol-1-yl)-2-((2R,5R)-2-methoxymethyl-5-methyl-piperazin-1-yl)-ethanone hydrochloride salt]?
IC50 [1, 8]: 45 nM; EC50 [2, 7]: 170 nM; EC50 ([4]; MDA-MB-231, 72 h): < 10000 nM

What does the source list for `COC[C@H]1CN[C@H](C)CN1CC(=O)N1CC(C)(C)c2cc(F)c(S(=O)(=O)c3ccc(OC)cc3)cc21` [Example 60, 1-[5-Fluoro-6-(4-methoxy-benzenesulfonyl)-3,3-dimethyl-2,3-dihydro-indol-1-yl]-2-((2R,5R)-2-methoxymethyl-5-methyl-piperazin-1-yl)-ethanone dihydrochloride salt]?
EC50 [2, 7]: 690 nM; EC50 ([4]; MDA-MB-231, 72 h): < 10000 nM

Which results are given for `COC[C@H]1CN[C@H](C)CN1CC(=O)N1CC(C)(C)c2cnc(Cc3ccccc3)cc21` [Example 63, 1-(6-Benzyl-3,3-dimethyl-2,3-dihydro-pyrrolo[3,2-c]pyridin-1-yl)-2-((2R,5R)-2-methoxy-methyl-5-methyl-piperazin-1-yl)-ethanone hydrochloride salt]?
EC50 [2, 7]: 100 nM; EC50 ([4]; MDA-MB-231, 72 h): < 10000 nM

`COC[C@H]1CN[C@H](C)CN1CC(=O)N1CC(C)(C)c2ccc(S(=O)(=O)CC(C)C)cc21` [Example 64, 1-[3,3-Dimethyl-6-(2-methyl-propane-1-sulfonyl)-2,3-dihydro-indol-1-yl]-2-((2R,5R)-2-methoxymethyl-5-methyl-piperazin-1-yl)-ethanone dihydrochloride salt] was tested. Which IC50 [1, 5] did it give?
The IC50 was 140 nM.

What about the EC50 [2, 7] of the same compound?
The EC50 was 1000 nM.

And the IC50 [3]?
The IC50 was 270 nM.

And the EC50 ([4]; MDA-MB-231, 72 h)?
The EC50 was < 10000 nM.

`COC[C@H]1CN[C@H](C)CN1CC(=O)N1CC(C)(C)c2cc(=O)n(Cc3ccccc3)cc21` [Example 67, 6-Benzyl-1-[2-((2R,5R)-2-methoxymethyl-5-methyl-piperazin-1-yl)-acetyl]-3,3-dimethyl-1,2,3,6-tetrahydro-pyrrolo[2,3-c]pyridin-5-one hydrochloride salt] was tested. Which IC50 [1] did it give?
The IC50 was < 1000 nM.

And the IC50 [1, 8]?
The IC50 was 17 nM.

And the EC50 [2, 9]?
Its EC50 is < 10000 nM.

And the EC50 [2, 10]?
The EC50 was 350 nM.

What about the IC50 [3] of the same compound?
Its IC50 is 310 nM.

And the EC50 [4, 11]?
The EC50 was < 10000 nM.

What does the source list for `COC[C@H]1CN[C@H](C)CN1CC(=O)N1CC(C)(C)c2cnc(Cc3ccc(Cl)cc3)cc21` [Example 82, 1-[6-(4-Chloro-benzyl)-3,3-dimethyl-2,3-dihydro-pyrrolo[3,2-c]pyridin-1-yl]-2-((2R,5R)-2-methoxymethyl-5-methyl-piperazin-1-yl)-ethanone]?
inhibition at 0.01 µM ([1]; 3 h, Probe B, @ 0.01 μM, read-out: IC50 or PI cIAP1: PI): 86%; EC50 [2, 9]: < 10000 nM; EC50 [2, 10]: 34 nM; IC50 [3]: 220 nM; EC50 [4, 11]: < 10000 nM

Which results are given for `COC[C@H]1CN[C@H](C)CN1CC(=O)N1CC(C)(C)c2cnc(Oc3ccccc3C)cc21` [Example 83, 1-(3,3-Dimethyl-6-o-tolyloxy-2,3-dihydro-pyrrolo[3,2-c]pyridin-1-yl)-2-((2R,5R)-2-methoxymethyl-5-methyl-piperazin-1-yl)-ethanone hydrochloride salt]?
IC50 [1]: < 1000 nM; IC50 [1, 8]: 110 nM; EC50 [2, 9]: < 10000 nM; EC50 [2, 10]: 2000 nM; IC50 [3]: 350 nM; EC50 [4, 11]: < 10000 nM

What does the source list for `C=C(c1ccccc1)c1cc2c(cn1)C(C)(C)CN2C(=O)CN1C[C@@H](C)NC[C@@H]1COC` [Example 93, 1-[3,3-Dimethyl-6-(1-phenylethenyl)-1H,2H,3H-pyrrolo[3,2-c]pyridin-1-yl]-2-[(2R,5R)-2-(methoxymethyl)-5-methylpiperazin-1-yl]ethan-1-one, hydrochloride salt]?
IC50 [1, 8]: 59 nM; EC50 [2, 10]: 1000 nM; IC50 [3]: 490 nM; EC50 [4, 11]: < 10000 nM

Which results are given for `COC[C@H]1CN[C@H](C)CN1CC(=O)N1CC(C)(C)c2ccc(Cc3ccccc3)cc21` [Example 94, 1-(6-Benzyl-3,3-dimethyl-2,3-dihydro-1H-indol-1-yl)-2-[(2R,5R)-2-(methoxy-methyl)-5-methyl-piperazin-1-yl]ethan-1-one, hydrochloride salt]?
IC50 [1, 8]: 14 nM; EC50 [2, 7]: 330 nM; EC50 ([4]; MDA-MB-231, 72 h): < 10000 nM

What does the source list for `COC[C@H]1CN[C@H](C)CN1CC(=O)N1CC(C)(C)c2cnc(C(=O)c3ccccc3)cc21` [Example 96, 1-{6-Benzoyl-3,3-dimethyl-1H,2H,3H-pyrrolo[3,2-c]pyridin-1-yl}-2-[(2R,5R)-2-(methoxymethyl)-5-methylpiperazin-1-yl]ethan-1-one, dihydrochloride salt]?
IC50 [1, 5]: 77 nM; EC50 [2, 6]: < 10000 nM; EC50 [2, 7]: 3000 nM; IC50 [3]: 340 nM; EC50 ([4]; MDA-MB-231, 72 h): < 10000 nM

How did the IC50 [1, 8] turn out when `COC[C@H]1CN[C@H](C)CN1CC(=O)N1CC(C)(C)c2cnc(Cc3cccc(F)c3)cc21` [Example 97, 1-{6-[(3-Fluorophenyl)methyl]-3,3-dimethyl-1H,2H,3H-pyrrolo[3,2-c]pyridin-1-yl}-2-[(2R,5R)-2-(methoxy-methyl)-5-methyl-piperazin-1-yl]ethan-1-one, hydrochloride salt] was run?
Its IC50 is 17 nM.

What about the EC50 [2, 9] of the same compound?
Its EC50 is < 10000 nM.

What about the EC50 [2, 10] of the same compound?
Its EC50 is 320 nM.

What about the IC50 [3] of the same compound?
The IC50 was 340 nM.

And the EC50 [4, 11]?
The EC50 was < 10000 nM.

What does the source list for `COC[C@H]1CN[C@H](C)CN1CC(=O)N1CC(C)(C)c2cnc(Oc3c(C)cccc3C)cc21` [Example 119, 1-[6-(2,6-Dimethylphenoxy)-3,3-dimethyl-1H,2H,3H-pyrrolo[3,2-c]pyridin-1-yl]-2-[(2R,5R)-2-(methoxymethyl)-5-methylpiperazin-1-yl]ethan-1-one hydrochloride]?
IC50 [1, 8]: 96 nM; EC50 [2, 7]: 870 nM; EC50 ([4]; MDA-MB-231, 72 h): < 10000 nM

With `C[C@@H]1CN(CC(=O)N2CC(C)(C)c3cnc(Cc4ccccc4)cc32)[C@@H](CF)CN1` [Example 121, 1-{6-Benzyl-3,3-dimethyl-1H,2H,3H-pyrrolo[3,2-c]pyridin-1-yl}-2-[(2R,5R)-2-(fluoromethyl)-5-methylpiperazin-1-yl]ethan-1-one hydrochloride] as the compound, how does the IC50 [1, 8] read?
The IC50 was 21 nM.

What about the EC50 [2, 10] of the same compound?
Its EC50 is 380 nM.

What about the IC50 [3] of the same compound?
The IC50 was 190 nM.

And the EC50 [4, 11]?
The EC50 was < 10000 nM.

With `C[C@@H]1CN(CC(=O)N2CC(C)(C)c3cnc(Cc4ccccc4)cc32)[C@@H](C(F)F)CN1` [Example 122, 1-{6-Benzyl-3,3-dimethyl-1H,2H,3H-pyrrolo[3,2-c]pyridin-1-yl}-2-[(2R,5R)-2-(difluoromethyl)-5-methylpiperazin-1-yl]ethan-1-one hydrochloride] as the compound, how does the IC50 [1, 8] read?
Its IC50 is 29 nM.

What about the EC50 [2, 10] of the same compound?
Its EC50 is 290 nM.

What about the IC50 [3] of the same compound?
The IC50 was 220 nM.

And the EC50 [4, 11]?
Its EC50 is < 10000 nM.

For `CCCC(F)(F)c1cnc2c(c1)N(C(=O)CN1C[C@@H](C)NC[C@@H]1CN1CCOC[C@H]1C)CC2(C)C` [Example 260, 1-[6-(1,1-Difluoro-butyl)-3,3-dimethyl-2,3-dihydro-pyrrolo[3,2-b]pyridin-1-yl]-2-[(2R,5R)-5-methyl-2-((R)-3-methyl-morpholin-4-ylmethyl)-piperazin-1-yl]-ethanone dihydrochloride], which inhibition at […] [1, 12] is on record?
The inhibition at […] was 90%.

What about the EC50 [2, 10] of the same compound?
The EC50 was 4.4 nM.

And the inhibition at 0.04 µM [3, 13]?
Its inhibition at 0.04 µM is 73%.

Which inhibition at […] [1, 12] does the source give for `C[C@@H]1CN(CC(=O)N2CC(C)(C)c3ncc(Cc4ccccc4F)cc32)[C@@H](CN2CCOC[C@H]2C)CN1` [Example 261, 1-[6-(2-Fluoro-benzyl)-3,3-dimethyl-2,3-dihydro-pyrrolo[3,2-b]pyridin-1-yl]-2-[(2R,5R)-5-methyl-2-((R)-3-methyl-morpholin-4-ylmethyl)-piperazin-1-yl]-ethanone dihydrochloride] here?
Its inhibition at […] is 96%.

What about the EC50 [2, 10] of the same compound?
The EC50 was 2.1 nM.

What about the inhibition at 0.04 µM [3, 13] of the same compound?
The inhibition at 0.04 µM was 55%.

`C[C@@H]1CN(CC(=O)N2CC(C)(C)c3ncc(Cc4ccc(F)cc4F)cc32)[C@@H](CN2CCOC[C@H]2C)CN1` [Example 264, 1-[6-(2,4-Difluoro-benzyl)-3,3-dimethyl-2,3-dihydro-pyrrolo[3,2-b]pyridin-1-yl]-2-[(2R,5R)-5-methyl-2-((R)-3-methyl-morpholin-4-ylmethyl)-piperazin-1-yl]-ethanone, dihydrochloride] was tested. Which inhibition at […] [1, 12] did it give?
Its inhibition at […] is 98%.

What about the EC50 [2, 10] of the same compound?
Its EC50 is 1 nM.

And the inhibition at 0.04 µM [3, 13]?
Its inhibition at 0.04 µM is 68%.

Which inhibition at 50 µM [1, 12] does the source give for `CC[C@@H](C(=O)N1CC(C)(C)c2ccc(C#N)cc21)N1CCN[C@H](C)C1` [Example 266, 3,3-Dimethyl-1-[(2S)-2-[(3R)-3-methylpiperazin-1-yl]butanoyl]-2,3-dihydro-1H-indole-6-carbonitrile, hydrochloride salt] here?
The inhibition at 50 µM was 24%.

What about the inhibition at 10 µM ([2]; EVSA-T, at 10 μM, read-out: EVSA-T prolif: % inhibition) of the same compound?
The inhibition at 10 µM was -20%.

What about the inhibition at 150 µM [3, 13] of the same compound?
The inhibition at 150 µM was -6%.
